Nine compounds from ChEMBL document CHEMBL1144638, “Hydantoins, triazolones, and imidazolones as selective non-hydroxamate inhibitors of tumor necrosis factor-alpha converting enzyme (TACE)” (Bioorg Med Chem Lett, 2007) can be followed below.

Test [1] concerns the target 72 kDa type IV collagenase (Homo sapiens, UniProt P08253). In words: Binding affinity to MMP2.
For test [2], the target named is Macrophage metalloelastase (Homo sapiens, UniProt P39900). In words: Binding affinity to MMP12.
Test [3] has as its target T1, Interstitial collagenase (Homo sapiens, UniProt P03956).
T1 sequence (P03956 whole entry): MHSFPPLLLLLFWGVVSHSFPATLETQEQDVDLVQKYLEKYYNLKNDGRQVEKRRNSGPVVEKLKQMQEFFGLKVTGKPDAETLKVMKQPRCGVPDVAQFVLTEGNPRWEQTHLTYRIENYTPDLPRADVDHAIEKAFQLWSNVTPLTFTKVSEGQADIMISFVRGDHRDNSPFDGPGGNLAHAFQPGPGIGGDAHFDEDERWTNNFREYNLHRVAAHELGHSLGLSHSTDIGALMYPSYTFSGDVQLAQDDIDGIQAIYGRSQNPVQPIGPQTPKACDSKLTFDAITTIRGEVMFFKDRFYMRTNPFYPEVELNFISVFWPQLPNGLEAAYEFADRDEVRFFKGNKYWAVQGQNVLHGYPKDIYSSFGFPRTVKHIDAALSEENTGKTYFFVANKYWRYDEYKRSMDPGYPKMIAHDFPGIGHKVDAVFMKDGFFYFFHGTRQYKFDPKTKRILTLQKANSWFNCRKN
In words: Binding affinity to MMP1.

The target in test [4] is Matrix metalloproteinase-9 (Homo sapiens, UniProt P14780). Put plainly: Binding affinity to MMP9.
Sequence of Matrix metalloproteinase-9 (P14780 whole entry): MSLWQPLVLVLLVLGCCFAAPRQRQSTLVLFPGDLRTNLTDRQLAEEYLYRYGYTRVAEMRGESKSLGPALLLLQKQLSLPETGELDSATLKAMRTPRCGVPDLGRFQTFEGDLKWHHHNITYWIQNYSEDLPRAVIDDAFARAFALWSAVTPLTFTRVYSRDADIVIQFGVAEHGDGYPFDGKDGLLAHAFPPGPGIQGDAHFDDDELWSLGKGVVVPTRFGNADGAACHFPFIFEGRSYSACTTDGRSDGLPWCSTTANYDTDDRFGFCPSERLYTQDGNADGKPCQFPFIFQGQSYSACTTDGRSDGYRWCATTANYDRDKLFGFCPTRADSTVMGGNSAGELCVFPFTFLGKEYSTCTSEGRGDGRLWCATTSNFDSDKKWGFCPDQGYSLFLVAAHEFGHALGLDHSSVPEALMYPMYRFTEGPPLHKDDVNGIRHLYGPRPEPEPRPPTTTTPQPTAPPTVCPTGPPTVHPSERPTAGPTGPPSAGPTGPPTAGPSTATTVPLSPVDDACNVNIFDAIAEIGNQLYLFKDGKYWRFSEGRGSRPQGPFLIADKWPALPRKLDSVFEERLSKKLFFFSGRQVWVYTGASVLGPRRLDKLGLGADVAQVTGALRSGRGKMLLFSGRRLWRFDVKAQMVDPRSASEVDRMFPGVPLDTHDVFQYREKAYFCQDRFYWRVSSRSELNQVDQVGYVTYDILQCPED
Test [5] concerns the target Stromelysin-1 (Homo sapiens, UniProt P08254). In words: Binding affinity to MMP3.
Test [6] deals with T2, Matrilysin (Homo sapiens, UniProt P09237).
T2 sequence (P09237 whole entry): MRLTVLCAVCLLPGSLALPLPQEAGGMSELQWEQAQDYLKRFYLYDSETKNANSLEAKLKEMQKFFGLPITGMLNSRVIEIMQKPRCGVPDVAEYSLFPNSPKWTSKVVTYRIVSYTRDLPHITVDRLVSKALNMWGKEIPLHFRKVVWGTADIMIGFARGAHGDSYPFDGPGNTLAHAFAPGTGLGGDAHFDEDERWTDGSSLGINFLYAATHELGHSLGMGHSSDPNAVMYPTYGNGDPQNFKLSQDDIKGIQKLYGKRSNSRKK
In words: Binding affinity to MMP7.

For test [7], the target named is Collagenase 3 (Homo sapiens, UniProt P45452). Put plainly: Binding affinity to MMP13.

pKi: −log10 of the molar value.

Sequence of Macrophage metalloelastase (P39900 whole entry): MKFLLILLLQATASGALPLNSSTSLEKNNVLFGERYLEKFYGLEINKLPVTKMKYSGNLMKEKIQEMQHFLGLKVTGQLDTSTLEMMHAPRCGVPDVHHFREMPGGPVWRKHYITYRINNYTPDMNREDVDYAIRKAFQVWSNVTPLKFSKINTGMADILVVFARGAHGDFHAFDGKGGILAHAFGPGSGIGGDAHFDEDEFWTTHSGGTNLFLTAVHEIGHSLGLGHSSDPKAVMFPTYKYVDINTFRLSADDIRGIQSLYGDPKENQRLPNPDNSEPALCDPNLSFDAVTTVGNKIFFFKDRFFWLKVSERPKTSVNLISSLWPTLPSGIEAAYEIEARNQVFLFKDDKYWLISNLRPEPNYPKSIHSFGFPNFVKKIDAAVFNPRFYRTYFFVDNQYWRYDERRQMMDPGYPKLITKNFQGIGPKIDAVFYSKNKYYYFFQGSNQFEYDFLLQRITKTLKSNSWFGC
Sequence of 72 kDa type IV collagenase (P08253 whole entry): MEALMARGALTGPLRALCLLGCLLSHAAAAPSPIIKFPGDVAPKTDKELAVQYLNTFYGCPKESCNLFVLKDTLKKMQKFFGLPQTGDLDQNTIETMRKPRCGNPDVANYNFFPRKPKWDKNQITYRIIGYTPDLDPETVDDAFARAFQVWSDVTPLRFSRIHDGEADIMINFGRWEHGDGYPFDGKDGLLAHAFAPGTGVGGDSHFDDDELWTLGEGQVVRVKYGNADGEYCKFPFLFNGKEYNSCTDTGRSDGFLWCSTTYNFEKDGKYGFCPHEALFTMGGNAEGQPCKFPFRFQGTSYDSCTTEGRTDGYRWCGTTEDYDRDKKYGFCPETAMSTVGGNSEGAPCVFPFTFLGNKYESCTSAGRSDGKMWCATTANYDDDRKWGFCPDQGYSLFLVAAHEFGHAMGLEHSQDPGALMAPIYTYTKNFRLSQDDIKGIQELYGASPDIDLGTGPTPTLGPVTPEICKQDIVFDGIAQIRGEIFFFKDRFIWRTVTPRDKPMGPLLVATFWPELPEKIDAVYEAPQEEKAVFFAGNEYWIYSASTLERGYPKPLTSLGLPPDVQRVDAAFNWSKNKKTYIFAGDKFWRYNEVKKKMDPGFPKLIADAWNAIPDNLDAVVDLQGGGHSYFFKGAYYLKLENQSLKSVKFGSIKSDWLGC
Sequence of Stromelysin-1 (P08254 whole entry): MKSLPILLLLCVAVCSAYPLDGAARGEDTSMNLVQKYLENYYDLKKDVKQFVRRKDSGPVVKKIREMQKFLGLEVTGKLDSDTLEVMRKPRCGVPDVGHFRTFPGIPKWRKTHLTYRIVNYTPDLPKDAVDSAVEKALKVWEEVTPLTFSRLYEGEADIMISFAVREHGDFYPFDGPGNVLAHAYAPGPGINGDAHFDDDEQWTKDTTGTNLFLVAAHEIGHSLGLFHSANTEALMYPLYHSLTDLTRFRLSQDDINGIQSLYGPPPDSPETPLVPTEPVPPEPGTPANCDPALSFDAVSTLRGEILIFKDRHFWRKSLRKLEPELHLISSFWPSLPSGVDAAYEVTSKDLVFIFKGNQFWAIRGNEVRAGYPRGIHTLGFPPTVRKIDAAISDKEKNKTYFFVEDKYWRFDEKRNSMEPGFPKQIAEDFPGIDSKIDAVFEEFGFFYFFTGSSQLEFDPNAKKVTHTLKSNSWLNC

By pKi is commonly meant the negative decadic logarithm of the Ki, by convention in mol/L. Low values mean a large Ki, high ones a small Ki. On to `Cc1cc(COc2ccc(C(=O)NCc3n[nH]c(=O)[nH]3)cc2)c2ccccc2n1`, for which the negative-log Ki (pKi) in test [1] was below 5.48; in test [2], below 5.30; in test [3], below 5.31; in test [4], below 5.67.

On to `Cc1cc(COc2ccc(S(=O)(=O)NCc3n[nH]c(=O)[nH]3)cc2)c2ccccc2n1`, for which the pKi is 6.25 in test [5]; 6.00 in test [6]; 5.61 in test [1]; below 5.30 in test [7]; 5.39 in test [2].

For `Cc1cc(COc2ccc(C(=O)Nc3ccccc3Cc3n[nH]c(=O)[nH]3)cc2)c2ccccc2n1`, the negative-log Ki (pKi) in test [5] was below 5.35; in test [6], below 5.20; in test [1] it was below 5.48; in test [7], 5.37; in test [2] it was 5.44.

Consider `Cc1cc(COc2ccc(C(=O)Nc3ccccc3Cc3c[nH]c(=O)[nH]3)cc2)c2ccccc2n1`, for which the pKi in test [5] was below 5.35; in test [6], below 5.20; in test [1], below 5.48; in test [7] it was below 5.30; in test [2] it was below 5.22.

For `Cc1cc(COc2ccc(C(=O)Nc3ccccc3C(=O)c3c[nH]c(=O)[nH]3)cc2)c2ccccc2n1`, the negative-log Ki (pKi) in test [5] was below 5.35; in test [6] it was below 5.20; in test [1], below 5.48; in test [7], 5.37; in test [2], below 5.22.

`Cc1cc(COc2ccc(C(=O)NCC3(C)NC(=O)NC3=O)cc2)c2ccccc2n1` (stereo unspecified): the pKi is below 5.48 in test [1], below 5.30 in test [2], below 5.31 in test [3] and below 5.67 in test [4].

On to `Cc1cc(COc2ccc(C(=O)Nc3ccccc3C3NC(=O)NC3=O)cc2)c2ccccc2n1` (stereo unspecified), for which the pKi in test [5] was below 5.35; in test [6], below 5.20; in test [1], below 5.48; in test [7], below 5.30; in test [2], 6.11.

As for `Cc1cc(COc2ccc(S(=O)(=O)NCC3(C)NC(=O)NC3=O)cc2)c2ccccc2n1` (stereo unspecified), the pKi in test [1] was below 5.48; in test [2] it was below 5.30; in test [3], below 5.31; in test [4] it was below 5.67.

Regarding `Cc1cc(COc2ccc(C(=O)N[C@H]3CN(C(=O)OC(C)(C)C)C[C@@H]3c3n[nH]c(=O)[nH]3)cc2)c2ccccc2n1`, the negative logarithm of the Ki (pKi) in test [1] is below 5.48; in test [2], below 5.30; in test [3], below 5.31; in test [4], below 5.67.
